This note sets out measurements from US8101760B2, “Glucocorticoid receptor modulator and methods of use” (Eli Lilly and Company, priority 2007, dated 2012).

A value given as a limit tells only on which side of the number the result lay.

This assay addresses T1, human mineralocorticoid receptor (MR) (Homo sapiens, UniProt P08235).
T1 construct: expressed in transfected cells; host or cells: HEK293, transient transfection (Fugene), CMV promoter plasmid
T1 sequence (P08235 1-984): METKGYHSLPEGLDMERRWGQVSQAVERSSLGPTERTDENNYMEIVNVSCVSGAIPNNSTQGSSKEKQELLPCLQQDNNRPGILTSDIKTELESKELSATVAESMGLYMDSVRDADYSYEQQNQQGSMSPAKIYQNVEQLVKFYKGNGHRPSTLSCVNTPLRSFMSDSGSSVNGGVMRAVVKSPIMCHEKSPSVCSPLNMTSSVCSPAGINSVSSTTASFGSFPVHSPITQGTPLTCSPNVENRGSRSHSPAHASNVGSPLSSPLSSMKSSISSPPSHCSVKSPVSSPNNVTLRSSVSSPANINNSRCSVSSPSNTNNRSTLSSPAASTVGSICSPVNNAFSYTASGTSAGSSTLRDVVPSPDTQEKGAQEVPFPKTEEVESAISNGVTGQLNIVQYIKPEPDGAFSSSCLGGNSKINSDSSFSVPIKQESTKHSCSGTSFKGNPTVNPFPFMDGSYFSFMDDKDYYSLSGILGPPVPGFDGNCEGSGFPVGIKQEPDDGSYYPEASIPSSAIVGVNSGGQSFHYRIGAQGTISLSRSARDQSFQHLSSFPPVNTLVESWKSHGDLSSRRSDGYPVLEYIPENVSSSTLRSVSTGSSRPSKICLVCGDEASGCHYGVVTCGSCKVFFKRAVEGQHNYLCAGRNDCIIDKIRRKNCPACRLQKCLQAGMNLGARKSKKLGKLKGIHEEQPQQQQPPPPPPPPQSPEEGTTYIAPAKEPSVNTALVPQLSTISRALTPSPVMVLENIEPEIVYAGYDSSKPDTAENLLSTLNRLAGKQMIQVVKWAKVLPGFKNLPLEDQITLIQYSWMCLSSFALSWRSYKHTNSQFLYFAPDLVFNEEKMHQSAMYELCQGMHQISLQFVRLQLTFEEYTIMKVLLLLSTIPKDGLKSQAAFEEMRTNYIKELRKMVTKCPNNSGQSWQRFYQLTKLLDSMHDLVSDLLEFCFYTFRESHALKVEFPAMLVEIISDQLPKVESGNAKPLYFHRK
Description: Nuclear hormone receptor functional modulation assay (GRE-luciferase, HEK293), MR. It counts as cell-based. From the text:
The solvents, reagents, and ligands employed in the functional assay are readily available from commercial sources, or can be prepared by one of ordinary skill in the art.
Human embryonic kidney HEK293 cells are transfected with steroid hormone receptor and reporter gene plasmids using Fugene™ (Roche Diganostics) transfection reagent. Briefly, the reporter plasmid containing two copies of probasin ARE (androgen response element 5′GGTTCTTGGAGTACT3′ (SEQ ID NO:1)) and TK(thymidine kinase) promoter upstream of the luciferase reporter cDNA, is transfected into HEK293 cells with a plasmid constitutively expressing human androgen receptor (AR) using viral CMV(cytomegalovirus) promoter. The reporter plasmid containing two copies of GRE (glucocorticoid response element 5′TGTACAGGATGTTCT′3 (SEQ ID NO:2)) and TK promoter upstream of the luciferase reporter cDNA is transfected with a plasmid constitutively expressing either human glucocorticoid receptor (GR), human mineralocorticoid receptor (MR), or human progesterone receptor (PR) using viral CMV promoter. Cells are transfected in T150 cm flasks in DMEM media with 5% charcoal-stripped Fetal Bovine Serum (FBS). […] In the antagonist mode for the assays, low concentrations of agonist for each respective receptor are added to the media (0.25 nM dexamethasone for GR, 0.3 nM of methyltrienolone for AR, 0.05 nM of promegestone for PR and 0.05 nM aldosterone for MR), and the ability of test compound to antagonize the agonist response is determined. After 24 hours of incubation with test compounds, cells are lysed and luciferase activity is determined using standard techniques.
Data are fitted to a four parameter-fit logistic curve fit to determine EC50 values. […] IC50 values may be determined similarly using antagonist mode assay data. Percent inhibitions may also be determined relative to the response in the presence of agonist alone, as described above.

In the case of `CC/C(=C1\c2ccc(Cl)cc2OCc2ncccc21)c1cccc(NS(C)(=O)=O)c1` [Compound (I), (E)-N-{3-[1-(8-Chloro-11H-10-oxa-1-aza-dibenzo[a,d]cyclohepten-5-ylidene)-propyl]-phenyl}-methanesulfonamide], the half-maximal effective concentration (EC50) (usually the concentration giving half of the maximal effect) (agonist mode, activating transcription) was above 10 µM. In addition, under “functional modulation, in words”, the “modulation of gene expression mediated by MR” value was “only limited activity”. The “MR % Eff.” value (percent efficacy at 10 μM relative to 30 nM aldosterone, mean of 3) is 8.5%.
